The values that follow come from patent publication US20250019385A1, “SPIROCYCLIC ANNULATED 2-AMINO-3-CYANO THIOPHENES AND DERIVATIVES FOR THE TREATMENT OF CANCER” (Boehringer Ingelheim International GmbH, priority 2023, published 2025).

Series [1] deals with KRAS (G12D)::CRAF protein::protein interaction (Homo sapiens (Human), UniProt P01116, G12D). The series is described as follows: KRAS TR-FRET assay (KRAS G12D::CRAF, GTP). It counts as binding. How it is done: (§1) This assay measures the inhibitory effect of compounds on KRAS::CRAF protein::protein interactions in the presence of GTP using Time-resolved fluorescence energy transfer (TR-FRET).
(§2) The following wildtype or mutant alleles of KRAS and CRAF protein have been used at the given concentrations:
KRAS (G12D) 1-169, N-terminal 6His-tag, C-terminal avi-tag (Xtal BioStructures, Inc.); final assay concentration 15 nM,
(§3) CRAF Ras binding domain, GST-tag, TEV cleavage site (Boehringer Ingelheim in house protein prep); final assay concentration 15 nM.
(§4) Test compounds dissolved in DMSO were dispensed onto assay plates (Proxiplate 384 PLUS, white, PerkinElmer; 6008289) using an Access Labcyte Workstation with the Labcyte Echo 55x. For the chosen highest assay concentration of 100 μM, 150 nl of compound solution was transferred from a 10 mM DMSO compound stock solution. A series of eleven fivefold dilutions per compound was transferred to the assay plate, compound dilutions were tested in duplicates. DMSO was added as backfill to a total volume of 150 nl.
(§5) The assay runs on a fully automated robotic system. To 150 nl of compound dilution 15 μl of a mix including the respective KRAS allele, CRAF (e.g. KRAS (G12D)::CRAF; final assay concentrations see above), GTP nucleotide (Sigma G8877; final assay concentration 10 μM), Lance Eu—W1024 labeled Streptavidin (PerkinElmer, Cat No AD0063; final assay concentration 1.5 nM) and Anti-GST surelight APC (PerkinElmer, Cat No AD0059G; final assay concentration 30 nM) in assay buffer (1×PBS, 0.1% BSA, 0.05% Tween 20) are added into columns 1-23 and 15 μL of the solution without the respective KRAS allele were added to row 24.
(§6) Plates are kept at room temperature in a darkened incubator. After 60 minutes incubation time the signal is measured in a PerkinElmer Envision HTS Multilabel Reader using the TR-FRET LANCE Ultra specs from PerkinElmer.
(§7) Each plate contains 16 wells of a negative control (diluted DMSO instead of test compound; w respective KRAS allele; column 23) and 16 wells of a positive control (diluted DMSO instead of test compound; w/o respective KRAS allele; column 24).
(§8) IC50 values were calculated and analyzed with Boehringer Ingelheim's MEGALAB 50 application using a 4 parametric logistic model.
(§9) Tables of example compounds disclosed herein contain IC50 values determined using the above assays (see Table 44).

For series [2], the target named is KRAS (WT)::CRAF protein::protein interaction (Homo sapiens (Human), UniProt P01116). As to the kind of experiment: KRAS TR-FRET assay (KRAS WT::CRAF, GTP). Type of series: binding. The procedure:
as §1, §2
KRAS (WT) 1-169, N-terminal 6His-tag, C-terminal avi-tag (Boehringer Ingelheim in house protein prep); final assay concentration 15 nM.
as §3, §4, §5, §6, §7, §8, §9

Series [3] concerns the target KRAS (G12V)::CRAF protein::protein interaction (Homo sapiens (Human), UniProt P01116, C118S/G12V). The series is described as follows: KRAS TR-FRET assay (KRAS G12V::CRAF, GTP). Type of series: binding. The procedure:
as §1, §2
KRAS (G12V) 1-169, C118S, N-terminal 6His-tag, C-terminal avi-tag (Boehringer Ingelheim in house protein prep); final assay concentration 15 nM.
as §3, §4, §5, §6, §7, §8, §9

Series [4] is described as follows: Caco-2 assay (permeability and efflux ratio). Type of series: in vitro ADME. The following applies: human. How it is done: The assay provides information on the potential of a compound to pass the cell membrane, on the extent of oral absorption as well as on whether the compound is actively transported by uptake and/or efflux transporters. Permeability measurements across polarized, confluent Caco-2 cell monolayers grown on permeable filter supports (Corning, catalog #3391) are used. 10 μM test compound solution in assay buffer (128.13 mM NaCl, 5.36 mM KCl, 1 mM MgSO4, 1.8 mM CaCl2), 4.17 mM NaHCO3, 1.19 mM Na2HPO4, 0.41 mM NaH2PO4, 15 mM 2-[4-(2-hydroxyethyl)piperazin-1-yl]ethanesulfonic acid (HEPES), 20 mM glucose, pH 7.4) was added to the donor compartment of the cell chamber containing a monolayer of Caco-2 cells in between the donor and the receiver compartment. The receiver and donor compartments contain 0.25% bovine serum albumine (BSA) in assay buffer. Passive diffusion and/or active transport of compounds across the monolayer is measured in both apical to basolateral (a-b) and basolateral to apical (b-a) direction. a-b permeability (PappAB) represents drug absorption from the intestine into the blood and b-a permeability (PappBA) drug secretion from the blood back into the intestine via both passive permeability as well as active transport mechanisms mediated by efflux and uptake transporters that are expressed on the Caco-2 cells. After a pre-incubation of 25-30 min at 37° C., at predefined time points (0, 30, 60 and 90 min), samples were taken from the receiver and donor compartment, respectively. Concentrations of test compounds in samples were measured by HPLC/MS/MS, samples from the donor compartment were diluted 1:50 (v:v) with assay buffer, samples from receiver compartment were measured without dilution.
Apparent permeabilities in a-b (PappAB) and b-a (PappBA) directions are calculated according to the formula:
[formula] • Vrec [mL]: buffer volume in receiver compartment • Cdon [μmol/mL]: concentration of test compound in donor compartment at t=0 • ΔCrec: difference between concentrations of test compound in receiver compartment at start and end of incubation time • Δt: Incubation time • Vrec·ΔCrec/Δt [μmol/min]: Amount of compound transferred to receiver compartment per time • A [cm^2]: filter surface
Caco-2 efflux ratios (ER) are calculated as the ratio of PappBA/PappAB.

Chain of KRAS (G12V)::CRAF protein::protein interaction (P01116 other isoform, or with tags, fused parts or gaps G12V/C118S): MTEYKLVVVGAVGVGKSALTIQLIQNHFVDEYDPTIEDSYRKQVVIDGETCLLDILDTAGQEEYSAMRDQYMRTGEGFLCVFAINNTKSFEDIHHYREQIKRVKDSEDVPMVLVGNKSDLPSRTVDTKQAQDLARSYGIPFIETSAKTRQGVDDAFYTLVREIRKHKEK
Chain of KRAS (WT)::CRAF protein::protein interaction (P01116 other isoform, or with tags, fused parts or gaps): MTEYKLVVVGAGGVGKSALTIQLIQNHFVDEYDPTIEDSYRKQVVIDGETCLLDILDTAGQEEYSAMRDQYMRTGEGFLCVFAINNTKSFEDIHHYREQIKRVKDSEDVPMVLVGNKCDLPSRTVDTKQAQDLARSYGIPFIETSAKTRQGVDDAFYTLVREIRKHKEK
Chain of KRAS (G12D)::CRAF protein::protein interaction (P01116 other isoform, or with tags, fused parts or gaps G12D): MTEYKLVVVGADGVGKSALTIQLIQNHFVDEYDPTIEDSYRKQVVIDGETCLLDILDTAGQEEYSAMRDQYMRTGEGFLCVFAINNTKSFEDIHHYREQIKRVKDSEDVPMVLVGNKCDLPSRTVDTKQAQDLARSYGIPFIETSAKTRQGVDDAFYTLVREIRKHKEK

In the case of `CO[C@H]1C[C@@H]([C@H](C)Oc2nc(-c3onc4c3CCC[C@@]43CCCc4sc(N)c(C#N)c43)nc3c2n(C)c(=O)n3[C@@H]2CCOC2)N(C)C1` [I-2], the IC50 came to 400 nM in series [1], 422 nM in series [2] and 180 nM in series [3].
The corresponding values for `C[C@H](Oc1nc(-c2onc3c2CCC[C@@]32CCCc3sc(N)c(C#N)c32)nc2c1n(C)c(=O)n2[C@@H]1CCOC1)[C@@H]1[C@@H](F)CCN1C` [I-5] are 449 nM, 657 nM and 266 nM.
As for `COCCn1c(=O)n(C)c2c(O[C@@H](C)[C@@H]3CCCN3C)nc(-c3onc4c3CCC[C@@]43CCCc4sc(N)c(C#N)c43)nc21` [I-7], the IC50 was found to be 2260 nM in series [1], 1150 nM in series [2] and 451 nM in series [3].
As for `C[C@H](Oc1nc(-c2onc3c2CCC[C@@]32CCCc3sc(N)c(C#N)c32)nc2c1n(C)c(=O)n2C1CCOCC1)[C@@H]1CCCN1C` [I-10], the IC50 was 698 nM in series [1], 348 nM in series [2] and 110 nM in series [3].
The matching figures for `C[C@H](Oc1nc(-c2onc3c2CCC[C@@]32CCCc3sc(N)c(C#N)c32)nc2c1n(C)c(=O)n2[C@H]1CCCOC1)[C@@H]1CCCN1C` [I-11]: 460 nM, 338 nM and 315 nM.
On to `C[C@H](Oc1nc(-c2onc3c2CCC[C@@]32CCCc3sc(N)c(C#N)c32)nc2c1n(C)c(=O)n2C12COC(C1)C2)[C@@H]1CCCN1C` [I-15], for which the IC50 in series [1] was found to be 298 nM; in series [2] it was 179 nM; in series [3] it was 150 nM.
Take `C[C@H](Oc1nc(-c2onc3c2CCC[C@@]32CCCc3sc(N)c(C#N)c32)nc2c1n(C)c(=O)n2[C@@H]1CCOC1)[C@@H]1C[C@@H](F)CN1C` [I-22]: the IC50 in series [1] is 138 nM; in series [2], 133 nM; in series [3], 60 nM.
The corresponding values for `CO[C@H]1CCN(C)[C@@H]1[C@H](C)Oc1nc(-c2onc3c2CCC[C@@]32CCCc3sc(N)c(C#N)c32)nc2c1n(C)c(=O)n2[C@@H]1CCOC1` [I-23] are 52 nM, 59 nM and 25 nM.
Turning to `C[C@H](Oc1nc(-c2onc3c2CCC[C@@]32CCCc3sc(N)c(C#N)c32)nc2c1n(C)c(=O)n2C1COC1)[C@@H]1CCCN1C` [I-24], the IC50 is 565 nM in series [1], 749 nM in series [2] and 153 nM in series [3].
As to `C[C@H](Oc1nc(-c2onc3c2CCC[C@@]32CCCc3sc(N)c(C#N)c32)nc2c1n(C)c(=O)n2[C@@H]1CCOC1)[C@@H]1C[C@H](F)CN1C` [I-27], the values for the IC50 in series [1], in series [2] and in series [3] were 410 nM, 462 nM and 196 nM, respectively.
For the compound `C[C@H](Oc1nc(-c2onc3c2CCC[C@@]32CCCc3sc(N)c(C#N)c32)nc2c1n(C)c(=O)n2[C@@H]1CCOC1)[C@@H]1C[C@@H]2C[C@@H]2N1C` [I-28], the IC50 is 434 nM in series [1], 541 nM in series [2] and 241 nM in series [3].
In the case of `CC(C)n1c(=O)n([C@@H]2CCOC2)c2nc(-c3onc4c3CCC[C@@]43CCCc4sc(N)c(C#N)c43)nc(O[C@@H](C)[C@@H]3CCCN3C)c21` [I-32], the IC50 was determined as 478 nM in series [1], 605 nM in series [2] and 191 nM in series [3].
With `C[C@H](Oc1nc(-c2onc3c2CCC[C@@]32CCCc3sc(N)c(C#N)c32)nc2c1ncn2[C@@H]1CCOC1)[C@@H]1CCCN1C` [I-38], the figures for the IC50 in series [1], in series [2] and in series [3] were 45 nM, 139 nM and 70 nM, respectively.
On to `Cc1nc2c(O[C@@H](C)[C@@H]3CCCN3C)nc(-c3onc4c3CCC[C@@]43CCCc4sc(N)c(C#N)c43)nc2n1[C@@H]1CCOC1` [I-39], for which the IC50 in series [1] was determined as 50 nM; in series [2], 52 nM; in series [3] it was 62 nM.
Consider `Cc1cc2c(O[C@@H](C)[C@@H]3CCCN3C)nc(-c3onc4c3CCC[C@@]43CCCc4sc(N)c(C#N)c43)nc2n1[C@@H]1CCOC1` [I-40], for which the IC50 worked out at 182 nM in series [1], 233 nM in series [2] and 119 nM in series [3].
The matching figures for `Cc1cn([C@@H]2CCOC2)c2nc(-c3onc4c3CCC[C@@]43CCCc4sc(N)c(C#N)c43)nc(O[C@@H](C)[C@@H]3CCCN3C)c12` [I-41]: 362 nM, 1830 nM and 405 nM.
For `Cc1nn([C@@H]2CCOC2)c2nc(-c3onc4c3CCC[C@@]43CCCc4sc(N)c(C#N)c43)nc(O[C@@H](C)[C@@H]3CCCN3C)c12` [I-42], the IC50 worked out at 263 nM in series [1], 273 nM in series [2] and 115 nM in series [3].
Take `C[C@H](Oc1nc(-c2onc3c2CCC[C@@]32CCCc3sc(N)c(C#N)c32)nc2c1cnn2[C@@H]1CCOC1)[C@@H]1CCCN1C` [I-43]: the IC50 is 255 nM in series [1], 326 nM in series [2] and 149 nM in series [3].
The matching figures for `CO[C@H]1CCN(C)[C@@H]1[C@H](C)Oc1nc(-c2noc3c2CCC[C@@]32CCCc3sc(N)c(C#N)c32)nc2c1n(C)c(=O)n2[C@@H]1CCOC1` [II-1]: 41 nM, 54 nM and 61 nM.
Consider `C[C@H](Oc1nc(-c2noc3c2CCC[C@@]32CCCc3sc(N)c(C#N)c32)nc2c1n(C)c(=O)n2[C@@H]1CCOC1)[C@@H]1CCCN1C` [II-2], for which the IC50 in series [1] came to 32 nM; in series [2], 52 nM; in series [3] it was 24 nM.
As for `C[C@H](Oc1nc(-c2noc3c2CCC[C@@]32CCCc3sc(N)c(C#N)c32)nc2c1cnn2[C@@H]1CCOC1)[C@@H]1CCCN1C` [II-4], the IC50 was determined as 97 nM in series [1], 81 nM in series [2] and 50 nM in series [3].
Consider `C[C@H](Oc1nc(-c2noc3c2CCC[C@@]32CCCc3sc(N)c(C#N)c32)nc2c1COC[C@@]21CCOC1)[C@@H]1CCCN1C` [II-9a], for which the IC50 in series [1] worked out at 283 nM; in series [2], 581 nM; in series [3], 142 nM.
Take `C[C@H](Oc1nc(-c2noc3c2CCC[C@@]32CCCc3sc(N)c(C#N)c32)nc2c1CCCO[C@]21CCOC1)[C@@H]1CCCN1C` [II-10]: the IC50 came to 128 nM in series [1], 56 nM in series [2] and 38 nM in series [3].
In the case of `C[C@H](Oc1nc(-c2noc3c2CCC[C@@]32CCCc3sc(N)c(C#N)c32)nc2c1CN(C1COC1)C[C@]21CCOC1)[C@@H]1CC[C@H](C)N1C` [II-17], the Papp A→B at 90 min, 10 μM in series [4] (Caco-2 apical to basolateral permeability, pH 7.4, read-out: Caco PappAB) was 16 ×10⁻⁶ cm/s. In series [4] (pH 7.4, Caco-2 efflux ratio PappBA/PappAB, read-out: Caco ER), the efflux ratio at 90 min, 10 μM amounted to 3.4.
